Source: PMC10199020 (Nature Communications, 2023)
Bridge positions count the residues as written; N and C are the ends. Square brackets hold non-standard residues; d marks the D form. Peptide text beside a SMILES is read from it. * marks the point of attachment. 5TAMRA = CN(C)c1ccc2c(c1)Oc1cc(N(C)C)ccc1C21OC(=O)c2cc(C(=O)*)ccc21; 2Nal = N[C@@H](Cc1ccc2ccccc2c1)C(=O)O; Pen = CC(C)(S)[C@H](N)C(=O)O; Aib = CC(C)(N)C(=O)O

Experiments:
NL-IL23R = target: T1, NL-IL23R (Homo sapiens, UniProt Q5VWK5); assay: P630-TMR NanoBRET binding assay, NL-IL23R alone; details: for BRET ratio, Specific (Mean) / BRET ratio, Non-specific (Mean): Fig. 2c; for BRET ratio, Non-specific (Mean): with 10 μM P630; for BRET ratio with non-specific binding subtracted (Mean): Figure 2 sheet Panel f; for BRET ratio with non-specific binding subtracted (Mean) / % maximum BRET ratio / % of P630-TMR specific Bmax (Mean): NL-IL23R; for % maximum BRET ratio / % of P630-TMR specific Bmax (Mean): Figure 2 sheet Panel g, Fig. 3d
T1 construct: expressed in transfected cells; host or cells: HEK293T, transient transfection
T1 sequence (Q5VWK5 24-629): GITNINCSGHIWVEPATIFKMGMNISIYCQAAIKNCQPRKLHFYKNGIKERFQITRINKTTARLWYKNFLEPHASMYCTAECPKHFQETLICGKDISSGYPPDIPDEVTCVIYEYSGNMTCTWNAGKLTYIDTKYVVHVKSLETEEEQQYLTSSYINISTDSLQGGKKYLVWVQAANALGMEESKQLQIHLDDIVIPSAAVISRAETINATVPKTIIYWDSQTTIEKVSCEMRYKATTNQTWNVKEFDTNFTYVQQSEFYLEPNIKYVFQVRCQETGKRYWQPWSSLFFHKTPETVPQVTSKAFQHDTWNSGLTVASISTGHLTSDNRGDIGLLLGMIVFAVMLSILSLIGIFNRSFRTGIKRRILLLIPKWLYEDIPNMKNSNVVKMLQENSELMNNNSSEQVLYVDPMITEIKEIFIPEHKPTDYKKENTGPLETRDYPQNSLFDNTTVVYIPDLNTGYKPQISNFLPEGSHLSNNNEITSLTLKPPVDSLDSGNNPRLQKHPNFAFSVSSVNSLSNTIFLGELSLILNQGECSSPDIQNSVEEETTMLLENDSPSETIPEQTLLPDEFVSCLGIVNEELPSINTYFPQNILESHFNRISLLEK
Excerpt: (§1) A standard curve was used to predict the expression level of NanoLuc labelled receptor in each experiment (Supplementary Fig. 1).
(§2) Fig. 2 Creation and characterisation of a fluorescent cyclic peptide probe for IL23R. […] Data are normally mean ± SEM from five independent experiments. Details on absolute number of data points included for each concentration are provided in the associated Source Data file. In each individual saturation experiment triplicate determinations were normally made for total binding and duplicate measurements were made for non-specific binding.
(§3) Media was removed from white 96-well microplates containing transfected cells and replaced with fluoroprobe in the presence or absence of antagonist in 50 μL Hanks Balanced Salt Solution (HBSS) with 1 mg/mL BSA (Merck). After a 1-hour incubation at 37 °C without CO2, 5 μL of HBSS containing 77 μM furimizine was added to each well (final concentration 7 μM), the plate incubated for 5-minutes and the BRET signal measured using a PheraStar FS plate reader (BMG Labtech; data acquisition software version 5.41; MARS analysis software version 3.32) with a 450 ± 30 nm and >550 nm long pass filters.
(§4) Ligand binding data were fitted with the equation:2 BRETratio=Bmax[A]/([A]+KD)+(BA+C). Where ‘Bmax’ is the maximum specific binding BRET signal, ‘[A]’ is fluorescent probe concentration, ‘B’ is the non-specific binding component’s slope and ‘C’ is the Y intercept.
(§5) Specific binding data was generated by subtracting the BRET values gained in the presence of an excess of unlabelled probe from the BRET ratios gained in the absence of unlabelled probe. Specific binding data were fit using the equation:3 Y=Bmax[B]/(B+KD) where ‘Bmax’ is the maximum specific binding signal of the curve and ‘[B]’ is the concentration of fluorescent probe.

NL-IL12Rβ1 with IL23R = target: T2, NL-IL12Rβ1 with IL23R (Homo sapiens, UniProt Q5VWK5); assay: P630-TMR NanoBRET binding assay, NL-IL12Rβ1 with IL23R; details: Fig. 2e, NL-IL12Rβ1 and IL23R
T2 construct: untagged full-length IL23R could be measured in the membranes of living cells; expressed in transfected cells; host or cells: HEK293T, transient transfection
Excerpt: as §1, §2, §3, §4, §5

[1] = NL-IL23R alone, P630-TMR 0.457247 nM
[2] = NL-IL23R alone, P630-TMR 1.37174 nM
[3] = NL-IL23R alone, P630-TMR 4.11523 nM
[4] = NL-IL23R alone, P630-TMR 12.3457 nM
[5] = NL-IL23R alone, P630-TMR 37.037 nM
[6] = NL-IL23R alone, P630-TMR 111.111 nM
[7] = NL-IL23R alone, P630-TMR 1000 nM
[8] = NL-IL23R alone, P630-TMR 3000 nM

Structure (SMILES): COc1ccc(C[C@H](NC(=O)[C@H]2NC(=O)[C@H](CCC(N)=O)NC(=O)[C@H](Cc3c[nH]c4ccccc34)NC(=O)[C@H]([C@@H](C)O)NC(=O)[C@H](CC(N)=O)NC(=O)[C@@H](NC(C)=O)C(C)(C)SSC2(C)C)C(=O)N[C@@H](Cc2ccc3ccccc3c2)C(=O)NC(C)(C)C(=O)N[C@@H](CCC(=O)O)C(=O)N[C@@H](CC(N)=O)C(=O)N[C@@H](CC(N)=O)C(=O)N[C@@H](CCCCNC(=O)c2ccc3c(c2)C(=O)OC32c3ccc(N(C)C)cc3Oc3cc(N(C)C)ccc32)C(N)=O)cc1 [P630-TMR] (Ac-[Pen]NTWQ[Pen]Y(Me)[2Nal][Aib]ENNK(5TAMRA)-NH2; disulfide 1-6)
- BRET ratio, Specific (Mean) (NL-IL23R; [1]): 0.2582
- BRET ratio, Specific (Mean) (NL-IL23R; [2]): 0.3055
- BRET ratio, Specific (Mean) (NL-IL23R; [3]): 0.425
- BRET ratio, Specific (Mean) (NL-IL23R; [4]): 0.7682
- BRET ratio, Specific (Mean) (NL-IL23R; [5]): 1.473
- BRET ratio, Specific (Mean) (NL-IL23R; [6]): 2.644
- BRET ratio, Specific (Mean) (NL-IL23R; [7]): 4.095
- BRET ratio, Specific (Mean) (NL-IL23R; [8]): 5.137
- BRET ratio, Non-specific (Mean) (NL-IL23R; [1]): 0.2458
- BRET ratio, Non-specific (Mean) (NL-IL23R; [2]): 0.2417
- BRET ratio, Non-specific (Mean) (NL-IL23R; [3]): 0.2509
- BRET ratio, Non-specific (Mean) (NL-IL23R; [4]): 0.245
- BRET ratio, Non-specific (Mean) (NL-IL23R; [5]): 0.2505
- BRET ratio, Non-specific (Mean) (NL-IL23R; [6]): 0.2646
- BRET ratio, Non-specific (Mean) (NL-IL23R; [7]): 0.4272
- BRET ratio, Non-specific (Mean) (NL-IL23R; [8]): 0.8664
- BRET ratio, Non-specific (Mean) (NL-IL23R; NL-IL23R alone, P630-TMR […]): 0.2988
- BRET ratio with non-specific binding subtracted (Mean) (NL-IL23R; P630-TMR 0.457247 nM): 0.01938
- BRET ratio with non-specific binding subtracted (Mean) (NL-IL23R; P630-TMR 1.37174 nM): 0.8164
- BRET ratio with non-specific binding subtracted (Mean) (NL-IL23R; P630-TMR 4.11523 nM): 2.963
- BRET ratio with non-specific binding subtracted (Mean) (NL-IL23R; P630-TMR 12.3457 nM): 2.778
- BRET ratio with non-specific binding subtracted (Mean) (NL-IL23R; P630-TMR 37.037 nM): 2.936
- BRET ratio with non-specific binding subtracted (Mean) (NL-IL23R; P630-TMR 111.111 nM): 9.572
- BRET ratio with non-specific binding subtracted (Mean) (NL-IL23R; P630-TMR 1000 nM): 15.1461
- BRET ratio with non-specific binding subtracted (Mean) (NL-IL23R; P630-TMR 3000 nM): 19.8619
- % maximum BRET ratio / % of P630-TMR specific Bmax (Mean) (NL-IL23R; P630-TMR 0.457247 nM): 0.5534%
- % maximum BRET ratio / % of P630-TMR specific Bmax (Mean) (NL-IL23R; P630-TMR 1.37174 nM): 1.759%
- % maximum BRET ratio / % of P630-TMR specific Bmax (Mean) (NL-IL23R; P630-TMR 4.11523 nM): 4.853%
- % maximum BRET ratio / % of P630-TMR specific Bmax (Mean) (NL-IL23R; P630-TMR 12.3457 nM): 14.5245%
- % maximum BRET ratio / % of P630-TMR specific Bmax (Mean) (NL-IL23R; P630-TMR 37.037 nM): 33.5672%
- % maximum BRET ratio / % of P630-TMR specific Bmax (Mean) (NL-IL23R; P630-TMR 111.111 nM): 64.3078%
- % maximum BRET ratio / % of P630-TMR specific Bmax (Mean) (NL-IL23R; P630-TMR 1000 nM): 100.336%
- % maximum BRET ratio / % of P630-TMR specific Bmax (Mean) (NL-IL23R; P630-TMR 3000 nM): 99.0015%
- Kd (NL-IL23R; NL-IL23R alone, mean ± SEM): 101 ± 4 nM
- Bmax, fold higher than NL-IL23R with IL12Rβ1 (NL-IL23R; NL-IL23R in isolation): 4.04 fold
- BRET ratio, Specific (Mean) (NL-IL12Rβ1 with IL23R; P630-TMR 0.457247 nM): 0.2494
- BRET ratio, Specific (Mean) (NL-IL12Rβ1 with IL23R; P630-TMR 1.37174 nM): 0.2506
- BRET ratio, Specific (Mean) (NL-IL12Rβ1 with IL23R; P630-TMR 4.11523 nM): 0.2544
- BRET ratio, Specific (Mean) (NL-IL12Rβ1 with IL23R; P630-TMR 12.3457 nM): 0.2565
